Paper PMC5057504, “Amyloid-β 1–24 C-terminal truncated fragment promotes amyloid-β 1–42 aggregate formation in the healthy brain” (Acta Neuropathologica Communications, 2016)

How the values were obtained:
[1] = system: wt mice; assay: Behavioral tests (open field, social interaction, novel object recognition) after intracranial injection; assay type: in vivo, mouse; conditions: wt mice i.c. injected, compared with vehicle and age matched APP/PS1 mice
Experimental: Mice were placed in a multi-unit open field maze (ViewPoint instruments) with field chamber (25 cm long and 25 cm wide), and activity was recorded using ViewPoint video tracking software. Each quadrant was digitally divided into a peripheral and a central region using ViewPoint video tracking software. The central quadrants are collectively referred to as the center zone and peripheral quadrants are collectively referred to as the peripheral zone. Data were collected continually for 30 min and the distance traveled (cm), velocity (cm/s), and the distance traveled in the center zone versus the peripheral zone were all recorded and scored automatically. In the open field task ambulatory movements (valued as distance traveled and movement speeds) and anxiety-like behaviors (as the as distance traveled in the center zone versus the peripheral zone) can be assessed in response to a novel environment.
The social interaction test was used to measure how mice respond to a social partner during a 5-min test following isolation housing. Since isolation housing potentiates expression of innate territorial defensive responses, in this test we evaluated the reaction of mice to the presence of a new animal in free conditions in the same arena. […]
The test apparatus consisted of an open field box measuring 50 cm × 25 cm and all sessions were video-recorded. […]

[2] = system: TNF-alpha; assay: TNF-alpha ELISA in serum and brain of intracranially injected wt mice; assay type: in vivo, mouse; conditions: wt mice 2.5 months after i.c. injection
Experimental: Stereotaxic intracranial injections in mice brains were made under a mixture of ketamine (100 mg/kg) and xylazine (10 mg/kg) anesthesia. After surgical exposure of dura mater, both the bregma and the skull surface served as the stereotaxic zero points. Using a Hamilton syringe, 4 μL of H-Aβ or vehicle (vehicle consists of physiological buffer−50 mM NaPi, 100 mM NaCl pH 7.4−) were injected into the neocortex (AP 1 mm, ML 2 mm, DV−2 mm) with a speed of 1.5 μL/min, the needle was kept in place for an additional minute before it was slowly drawn out. For each experiment 4 pmol of H-Aβ42, 4 pmol of H-Aβ24 and 2 pmol of H-Aβ42 plus 2 pmol of H-Aβ24 for the mix condition were injected, as described in [70, 90]. Different conditions were used for specific experiments as specified in the text. After suturing the incision, mice were maintained on a warm pad until recovery from the anesthesia, then returned to their cages.

[3] = ATR-FTIR spectroscopy of peptide assemblies; assay type: physicochemical; conditions: 100 μM peptide (mix 50 μM each), incubated at 37 °C in PBS, 20 min to 6 days; hydrated film
Experimental: The in vitro aggregation of Aβ samples was monitored by ThT assay (Fig. 6a–c). ThT fluorescence emission was recorded at different incubation times at 37 °C in physiological buffer. […] Further, we recorded the emission fluorescence spectra of the samples incubated for 96 h at 37 °C after tyrosine excitation at 270 nm, which is also able to produce ThT fluorescence. […] The secondary structures of the peptide assemblies were also investigated by Fourier transform infrared (FTIR) spectroscopy in attenuated total reflection (ATR) (Fig. 6d). […] During incubation at 37 °C of H-Aβ42, this component increased in intensity while that at ~1695 cm^−1 decreased (Fig. 6d). These spectral changes have been already observed in the fibrillogenesis of Aβ peptides and of other proteins, and assigned to the conformational conversion towards fibrillar structures with a parallel orientation of the intermolecular β-sheets. […]
For the ATR-FTIR measurements, 2 μL of Aβ42 (at 100 μM concentration), of Aβ24 (at 100 μM concentration), or of the equimolar mixture of the two peptides (at 50 μM concentration each) were deposed on the single reflection diamond element of the ATR device (Quest, Specac, UK). Spectra were recorded after solvent evaporation to allow the formation of an hydrated film as previously described. […]

[4] = target: T1, murine Aβ (Mus musculus, UniProt P12023); assay: Immunoblot of brain homogenate fractions with murine-Aβ-specific antibody m3.2; assay type: in vivo; conditions: wt mice analyzed 4 months after i.c. injection; supernatant and pellet
T1 construct: co-aggregation of the injected peptide and endogenously produced mouse Aβ42, retained in the brain; from tissue; host or cells: brain homogenate (supernatant and pellet fractions) of injected wild-type mice
Experimental: Animals were anesthetized and perfused with PBS before brains were removed, weighted and homogeneted in a mild hypotonic buffer (50 mM Tris pH 8, 150 mM NaCl, 5 mM EDTA supplemented with phosphatase and protease inhibitor, EDTA-free, Roche). Supernatants were then centrifuged for 1 h at 3000 × g to pellet insoluble material, including insoluble Aβ species. Samples were either frozen on dry ice or LDS sample buffer (Invitrogen) containg 5 % β-mercaptoethanol was immediately added. Pellets were directly resuspended in 20 μl of LDS sample buffer. 10 μl sample were loaded onto a Bolt 4–12 % Bis-Tris Plus Gels (Thermo Fisher) for Western Blot evaluation. Samples were separated using MES buffer and transferred onto a […] nitrocellulose membrane (Bio-Rad). Membranes were washed in TBS-Tween (150 mM NaCl, 50 mM Tris and 0.1 % (v/v) Tween-20) and incubated for 45 min at room temperature in blocking solution (5 % milk or 2.5 % serum bovine albumin in TBST). Membranes were subsequently probed overnight at 4 °C with primary antibodies diluted in TBS-T buffer. Membranes were washed extensively and incubated for 45 min at room temperature with horseradish peroxidase-conjugated (HRP) secondary antibody diluted in TBST buffer. Antibody-specific signals were detected using enhanced chemiluminescence reagents (Clarity Western ECL substrate, Bio-Rad).

[5] = system: bEnd.3 cells
Experimental: (ATCC® CRL2299™) were used as a representative BBB model. bEnd.3 cells were cultured at 37 °C, 5 % CO2/saturated humidity in DMEM supplemented with 10 % heat-inactivated fetal bovine serum (FBS), 1 % penicillin-streptomycin.
bEnd.3 cells were seeded at a concentration of 30000 cells/cm^2 onto geltrex-coated (thin layer; Gibco) transwell inserts (polycarbonate, 12 mm diameter, 3 μm pore size; Costar) until a monolayer was established.
To assess Aβ42 exchange across the BBB model, bEnd.3 cells were cultured upside-down on a transwells system as described above, until steady-state TEER had been reached. […] The level of fluorescence in the media collected was measured for 488-Aβ42 (λex = 503 nm and λem = 528 nm) or for FAM-Aβ42 (λex = 492 nm and λem = 518 nm) using a Synergy™ H4 Hybrid Multi-Mode Microplate Reader (BioTek). Relative fluorescence units were converted to concentration according to prepared standard, and were corrected for background fluorescence. […] Briefly, Aβ42 volume cleared (ΔVc) was calculated using the equation ΔVc = Clower × Vlower/Cupper, where Cupper and Clower are fluorescently-labeled Aβ42 concentrations in the donor and receiving compartments, respectively, and Vlower is the volume on the basolateral side. […] Permeability coefficients (P) were calculated by dividing against the surface area of the filter (1.12 cm^2). […]

[6] = system: wt mice brain; assay: Intracranial injection in wt mice: amyloid aggregate deposition (6E10 DAB, Congo red, ThT staining); assay type: in vivo, mouse; conditions: for ThT-positive aggregates in brain sections: 2.5 months after i.c. injection; for 6E10-positive aggregates in brain, 6 months after injection: i.c. injection of oligomeric peptide, 6E10 followed by HRP
Experimental: Mice were anesthetized and perfused with 0.9 % saline, followed by 4 % PFA. The 30 μm cryosections of brain were blocked in PBS containing 10 % goat serum and 0.1 % Triton X-100 for 1 h at room temperature before being incubated overnight at 4 °C with primary antibodies. The following day, the slides were rinsed in PBS and incubated at room temperature for 1 h with secondary antibody. The slides were processed using the ABC detection kit (Vector Laboratories). […] Immunofluorescence and ThT staining were performed on brain sections. Brain slices were washed three times in PBS and incubated for 1 h at room temperature in blocking solution (3 % BSA). Subsequently, the slides were washed 3 times and incubated overnight with specific antibodies. The next day, sections were washed in PBS and incubated for 2 h at room temperature with specific fluorochrome-conjugated secondary antibodies diluted in 3 % BSA in the dark. ThT solution was prepared as described above. Final solution was added to free floating slides for 1 min and very quickly washed with 80 % methanol followed by 3 washes with distilled water. Images were acquired by Virtual Slides microscope (VS120, Olympus). For quantification, both diffuse-plaques and dense-core plaques were considered, as described in [92]. Small dots and deposits at the slice edge were not counted. The entire surface of the slice was examined. For congo red histological staining, slices were air-dried on glass overnight, then stained with a 0.2 % congo red solution according to [93]. Specimens were acquired by transmittance polarized light microscopy, FITCH filtered epifluorescence. For quantification, bright field images were analyzed by color segmentation plugin-ImageJ software (NIH, Bethesda, MD). The entire area of deposits was considered.

[7] = system: primary microglia
Experimental: Primary microglia were obtained from mixed cultures prepared from the cerebral cortex of mice at the postnatal day 1 (P1-3). Microglia cells were isolated by shaking flasks for 45 min at 230 rpm at day 10 after plating. Cells were then seeded on poly-L-ornithine (Sigma) pre-coated wells at the density of 1,5×10^5 cell/mL in DMEM containing 20 % heat-inactivated fetal bovine serum (FBS) and incubated at 37 ° C in a humidified atmosphere of 5 % CO2 and 95 % air. Where indicated, cells were pre-treated for 45 min with protease inhibitors and EDTA 2.5 mM (Roche) which were directly added to the cell culture medium. […] When not differently indicated, for in vitro experiments microglia were treated with H-Aβ42 400 nM.
Aliquots of supernatant samples (200 μL) were loaded on nitrocellulose membrane Trans-Blot Transfer Medium (0.22 μm, Bio-Rad), by vacuum deposition on the Bio-Dot SF blotting apparatus (Bio-Rad). Serial dilution curves of Aβ42 synthetic protein were preliminarily run to obtain non-saturating condition of immunodetection. DB dots images were analysed by Image Lab™ software (Bio-Rad).
Aβ42 levels were determined using specific ELISA kit (Amyloid-beta (x-42) ELISA IBL, International) following manufacturer’s instructions. Briefly, 100 μL of sample was added into the pre-coated plate and was incubated overnight at 4 °C. After washing each well of the pre-coated plate, 100 μL of labeled antibody solution was added and the mixture was incubated for 1 h at 4 °C in the dark. After washing, chromogen was added and the mixture was incubated for 30 min at room temperature in the dark. After the addition of stop solution, the resulting color was assayed at 450 nm using a microplate absorbance reader (Synergy H4 Synergy™ H4 Microplate Reader, BioTek).

T1 sequence (P12023 672-713 limits assumed): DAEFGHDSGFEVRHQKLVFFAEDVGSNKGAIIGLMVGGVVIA

Substance | Behavioral phenotype (open field, sociality task, NOR) [1] | TNF-alpha levels in serum and brains [2] | ATR-FTIR Amide I band (secondary structure of the assemblies) [3] | m3.2 positive bands (murine Aβ) in brain homogenate fractions [4] | Effect of H-Aβ24 on the diffusion of fluorescently labeled scrambled H-Aβ42 [5] | H-Aβ42 apical-to-basolateral passage when pre-incubated with H-Aβ24, dot blot [5] | ThT-positive aggregates in brain sections [6] | 6E10-positive aggregates in brain, 6 months after injection ([6]; 4 pmol (mix 2 + 2 pmol)) | 6E10-positive aggregates in brain, 2.5 months after injection ([6]; i.c. injection, 4 pmol (mix 2 + 2 pmol)) | Internalization by microglia ([7]; primary microglia, 1 μM, 3 h of treatment) | Extracellular Aβ42 in microglia medium, ELISA with capture antibody 6E10 (N-terminal), detection 4G8 [7] | Extracellular Aβ42 in microglia medium, ELISA with capture antibody against the C-terminal domain [7] | Extracellular Aβ42 in microglia medium, dot blot with C-terminal anti-Aβ42 [7]
synthetic human Aβ1-24 peptide [H-Aβ24] | cognitive defects comparable to APP/PS1 mice | significant increase | two main peaks at ~1695 cm^−1 and ~1628 cm^−1 | presence of m3.2 positive bands | No effect | decreased amount of H-Aβ42 | ThT-positive aggregates were detected | induced the formation of aggregates | already detectable |  |  |  | 
HiLyte Fluor™ 488-labeled Beta-Amyloid (1–42) [488-conjugated H-Aβ42] |  |  |  |  |  |  |  |  |  | efficiently internalized |  |  | 
Synthetic human Aβ1–42 [H-Aβ42] | some behavioral alterations | much less | higher intensity of the ~1628 cm^−1 peak |  |  |  | only ThT-positive blood vessels | did not cause Aβ deposition |  |  | lack of changes | significant decrease | reduction of extracellular Aβ42
